Results from PubChem BioAssay AID332 (DTP/NCI, 2004).
“And” between values parts separate entries of the source, which are not always exact repeats. Identical values can stand only once. Records with an inconclusive call do not appear.

System: mice, ADJ-PC-20 plasma cell tumor sc, T/C %
Experiment: NCI In Vivo Anticancer Drug Screen. Data for tumor model ADJ-PC-20 Plasma Cell (subcutaneous) in unknown mice
Conditions: endpoint: mean tumor weight, higher = larger tumour
Procedure: The antitumor activity of compounds was measured in mice bearing transplantable tumors. Survival or tumor size were measured and the results are expressed as the measurement made in the treated group (T) divided by the measurement made in the vehicle treated control group (C). The tumor model used in this assay is ADJ-PC-20 Plasma Cell (subcutaneous) in unknown mice

[1] = dose: 12.5 mg/kg/injection, schedule: Q01DX010 (ip), vehicle: carboxymethylcellulose (CMC)
[2] = dose: 25.0 mg/kg/injection, schedule: Q01DX010 (ip), vehicle: carboxymethylcellulose (CMC)
[3] = dose: 0.12 mg/kg/injection, schedule: Q01DX010 (ip), vehicle: carboxymethylcellulose (CMC)
[4] = dose: 6.25 mg/kg/injection, schedule: Q01DX010 (ip), vehicle: carboxymethylcellulose (CMC)

CCCCn1cnc2c(=S)nc[nH]c21
T/C (dose: 0.8 mg/kg/injection, schedule: Q01DX010 (ip), vehicle: carboxymethylcellulose (CMC)): 74 % of control | T/C (dose: 1.6 mg/kg/injection, schedule: Q01DX010 (ip), vehicle: carboxymethylcellulose (CMC)): 68 % of control | T/C (dose: 3.1 mg/kg/injection, schedule: Q01DX010 (ip), vehicle: carboxymethylcellulose (CMC)): 52 % of control | T/C (dose: 6.3 mg/kg/injection, schedule: Q01DX010 (ip), vehicle: carboxymethylcellulose (CMC)): 41 % of control | T/C [1]: 15 % of control | T/C [2]: 1 % of control

O=c1cnn(C2OC(CO)C(O)C2O)c(=O)[nH]1 (stereo unspecified)
T/C (dose: 31.0 mg/kg/injection, schedule: Q01DX011 (ip), vehicle: water): 51 % of control | T/C (dose: 62.5 mg/kg/injection, schedule: Q01DX011 (ip), vehicle: water): 52 % of control | T/C (dose: 125.0 mg/kg/injection, schedule: Q01DX010 (ip), vehicle: water): 41 % of control | T/C (dose: 125.0 mg/kg/injection, schedule: Q01DX011 (ip), vehicle: water): 69 % of control | T/C (dose: 250.0 mg/kg/injection, schedule: Q01DX010 (ip), vehicle: water): 49 % of control | T/C (dose: 250.0 mg/kg/injection, schedule: Q01DX011 (ip), vehicle: water): 30 % of control

S=P(N1CC1)(N1CC1)N1CC1
T/C (dose: 0.63 mg/kg/injection, schedule: Q01DX010 (ip), vehicle: saline): 57 % of control | T/C (dose: 1.25 mg/kg/injection, schedule: Q01DX010 (ip), vehicle: saline): 2 % of control

O=c1[nH]c(=O)n(C2CC(O)C(CO)O2)cc1I (stereo unspecified)
T/C (dose: 31.25 mg/kg/injection, schedule: Q01DX010 (ip), vehicle: carboxymethylcellulose (CMC)): 49 % of control | T/C (dose: 62.5 mg/kg/injection, schedule: Q01DX010 (ip), vehicle: carboxymethylcellulose (CMC)): 77 % of control | T/C (dose: 125.0 mg/kg/injection, schedule: Q01DX010 (ip), vehicle: carboxymethylcellulose (CMC)): 32 % of control | T/C (dose: 250.0 mg/kg/injection, schedule: Q01DX010 (ip), vehicle: carboxymethylcellulose (CMC)): 11 % of control

CC(=O)OCC1OC(n2ncc(=O)[nH]c2=O)C(OC(C)=O)C1OC(C)=O (stereo unspecified)
T/C (dose: 125.0 mg/kg/injection, schedule: Q01DX010 (ip), vehicle: other): 55 % of control | T/C (dose: 250.0 mg/kg/injection, schedule: Q01DX010 (ip), vehicle: other): 58 % of control | T/C (dose: 500.0 mg/kg/injection, schedule: Q01DX010 (ip), vehicle: other): 48 % of control

CCCCCCCCCCCCNCCCCCCCCCCCC
T/C (dose: 0.9 mg/kg/injection, schedule: Q01DX010 (ip), vehicle: carboxymethylcellulose (CMC)): 109 % of control | T/C (dose: 1.8 mg/kg/injection, schedule: Q01DX010 (ip), vehicle: carboxymethylcellulose (CMC)): 109 % of control | T/C (dose: 3.7 mg/kg/injection, schedule: Q01DX010 (ip), vehicle: carboxymethylcellulose (CMC)): 98 % of control | T/C (dose: 7.5 mg/kg/injection, schedule: Q01DX010 (ip), vehicle: carboxymethylcellulose (CMC)): 88 % of control and 110 % of control

NC(=O)N(CCCl)N=O
T/C (dose: 1.75 mg/kg/injection, schedule: Q01DX010 (ip), vehicle: carboxymethylcellulose (CMC)): 93 % of control | T/C (dose: 3.5 mg/kg/injection, schedule: Q01DX010 (ip), vehicle: carboxymethylcellulose (CMC)): 105 % of control | T/C (dose: 7.0 mg/kg/injection, schedule: Q01DX010 (ip), vehicle: carboxymethylcellulose (CMC)): 102 % of control

CC[C@@H](c1ccc(O)cc1)[C@@H](CC)c1ccc(O)cc1
T/C (dose: 62.0 mg/kg/injection, schedule: Q01DX010 (sc), vehicle: steriod suspending solution): 80 % of control | T/C (dose: 125.0 mg/kg/injection, schedule: Q01DX010 (sc), vehicle: steriod suspending solution): 87 % of control | T/C (dose: 250.0 mg/kg/injection, schedule: Q01DX010 (sc), vehicle: steriod suspending solution): 83 % of control | T/C (dose: 500.0 mg/kg/injection, schedule: Q01DX010 (sc), vehicle: steriod suspending solution): 91 % of control and 105 % of control | T/C (dose: 1000.0 mg/kg/injection, schedule: Q01DX010 (sc), vehicle: steriod suspending solution): 111 % of control

Nc1nc(N)c2nc(CNc3ccc(C(=O)NC(CCC(=O)O)C(=O)O)cc3)cnc2n1 (stereo unspecified)
T/C (dose: 63.0 micrograms/kg/injection, schedule: Q01DX010 (ip), vehicle: alkali diluted with saline): 86 % of control | T/C (dose: 125.0 micrograms/kg/injection, schedule: Q01DX010 (ip), vehicle: alkali diluted with saline): 82 % of control

Nc1nc(=S)c2[nH]cnc2[nH]1
T/C [3]: 112 % of control | T/C (dose: 0.25 mg/kg/injection, schedule: Q01DX010 (ip), vehicle: carboxymethylcellulose (CMC)): 39 % of control and 62 % of control | T/C (dose: 0.5 mg/kg/injection, schedule: Q01DX010 (ip), vehicle: carboxymethylcellulose (CMC)): 9 % of control | T/C (dose: 62.0 micrograms/kg/injection, schedule: Q01DX010 (ip), vehicle: carboxymethylcellulose (CMC)): 52 % of control | T/C (dose: 125.0 micrograms/kg/injection, schedule: Q01DX010 (ip), vehicle: carboxymethylcellulose (CMC)): 23 % of control | T/C (dose: 250.0 micrograms/kg/injection, schedule: Q01DX010 (ip), vehicle: carboxymethylcellulose (CMC)): 14 % of control

CN(Cc1cnc2nc(N)nc(N)c2n1)c1c(Cl)cc(C(=O)NC(CCC(=O)O)C(=O)O)cc1Cl (stereo unspecified)
T/C [4]: 93 % of control | T/C [1]: 112 % of control | T/C [2]: 79 % of control and 97 % of control | T/C (dose: 50.0 mg/kg/injection, schedule: Q01DX010 (ip), vehicle: carboxymethylcellulose (CMC)): 71 % of control

Nc1ncnc2[nH]ncc12
T/C [4]: 108 % of control | T/C [1]: 87 % of control | T/C [2]: 22 % of control

O=C(Nc1ccc(C2=NCCN2)cc1)c1ccc(C(=O)Nc2ccc(C3=NCCN3)cc2)c(Cl)c1
T/C (dose: 1.62 mg/kg/injection, schedule: Q01DX010 (ip), vehicle: water): 108 % of control | T/C (dose: 3.12 mg/kg/injection, schedule: Q01DX010 (ip), vehicle: water): 152 % of control | T/C (dose: 6.25 mg/kg/injection, schedule: Q01DX010 (ip), vehicle: water): 94 % of control | T/C (dose: 6.3 mg/kg/injection, schedule: Q01DX010 (ip), vehicle: water): 64 % of control | T/C (dose: 7.5 mg/kg/injection, schedule: Q01DX010 (ip), vehicle: water): 81 % of control and 83 % of control | T/C (dose: 12.5 mg/kg/injection, schedule: Q01DX010 (ip), vehicle: water): 121 % of control | T/C (dose: 30.0 mg/kg/injection, schedule: Q01DX010 (ip), vehicle: water): 55 % of control and 66 % of control

CC[C@]1(O)C[C@H]2CN(CCc3c([nH]c4ccccc34)[C@@](C(=O)OC)(c3cc4c(cc3OC)N(C=O)[C@H]3[C@@](O)(C(=O)OC)[C@H](OC(C)=O)[C@]5(CC)C=CCN6CC[C@]43[C@@H]65)C2)C1
T/C (dose: 0.12 mg/kg/injection, schedule: Q01DX010 (ip), vehicle: water): 109 % of control | T/C (dose: 0.5 mg/kg/injection, schedule: Q01DX010 (ip), vehicle: water): 105 % of control | T/C (dose: 31.0 micrograms/kg/injection, schedule: Q01DX010 (ip), vehicle: water): 97 % of control | T/C (dose: 62.0 micrograms/kg/injection, schedule: Q01DX010 (ip), vehicle: water): 95 % of control | T/C (dose: 125.0 micrograms/kg/injection, schedule: Q01DX010 (ip), vehicle: water): 90 % of control | T/C (dose: 250.0 micrograms/kg/injection, schedule: Q01DX010 (ip), vehicle: water): 63 % of control

CN(Cc1cnc2nc(N)nc(N)c2n1)c1ccc(C(=O)N[C@@H](CCC(=O)O)C(=O)O)cc1
T/C (dose: 0.04 mg/kg/injection, schedule: Q01DX010 (ip), vehicle: other): 117 % of control | T/C (dose: 0.08 mg/kg/injection, schedule: Q01DX010 (ip), vehicle: other): 107 % of control | T/C (dose: 0.15 mg/kg/injection, schedule: Q01DX010 (ip), vehicle: other): 78 % of control | T/C (dose: 0.31 mg/kg/injection, schedule: Q01DX011 (ip), vehicle: other): 46 % of control | T/C (dose: 0.62 mg/kg/injection, schedule: Q01DX010 (ip), vehicle: other): 68 % of control and 89 % of control | T/C (dose: 0.62 mg/kg/injection, schedule: Q01DX011 (ip), vehicle: other): 59 % of control | T/C (dose: 0.63 mg/kg/injection, schedule: Q01DX010 (ip), vehicle: other): 88 % of control and 107 % of control

O=C(Nc1ccc(NC2=NCCN2)cc1)c1ccc(C(=O)Nc2ccc(NC3=NCCN3)cc2)cc1
T/C (dose: 4.0 mg/kg/injection, schedule: Q01DX010 (ip), vehicle: saline): 98 % of control | T/C (dose: 8.0 mg/kg/injection, schedule: Q01DX010 (ip), vehicle: saline): 69 % of control

C[C@]12C=CC(=O)C=C1CC[C@@H]1[C@@H]2[C@@H](O)C[C@@]2(C)[C@H]1CC[C@]2(O)C(=O)CO
T/C (dose: 32.0 mg/kg/injection, schedule: Q01DX010 (sc), vehicle: steriod suspending solution): 63 % of control

N#[N+]c1cnc([O-])[nH]c1=O
T/C (dose: 5.0 mg/kg/injection, schedule: Q01DX010 (ip), vehicle: carboxymethylcellulose (CMC)): 99 % of control | T/C (dose: 10.0 mg/kg/injection, schedule: Q01DX010 (ip), vehicle: carboxymethylcellulose (CMC)): 90 % of control

N#Cc1cn(C2OC(CO)C(O)C2O)c2ncnc(N)c12 (stereo unspecified)
T/C [3]: 47 % of control

O=P1(N(CCCl)CCCl)NCCCO1 (stereo unspecified)
T/C (dose: 3.2 mg/kg/injection, schedule: Q01DX010 (ip), vehicle: saline): 21 % of control | T/C (dose: 6.25 mg/kg/injection, schedule: Q01DX010 (ip), vehicle: saline): 7 % of control
